Assay results as given in paper PMC4503722, “Novel Phenotypic Outcomes Identified for a Public Collection of Approved Drugs from a Publicly Accessible Panel of Assays” (PLoS ONE, 2015).

How the values were obtained:
[1] = target: T1, hp70S6K1 (RPS6KB1) (Homo sapiens, UniProt P23443); experiment: Cerep LANCE kinase assay hp70S6K1 (S1 assay 31); format: biochemical; details: for hp70S6K1 LANCE IC50/EC50: assay number 31
T1 construct: purchased Cerep (LANCE kinase assay platform, contract assay)

[2] = target: T2, hKDR (Homo sapiens, UniProt P35968); experiment: Cerep LANCE kinase assay hKDR (S1 assay 32); format: biochemical; details: for hKDR LANCE IC50/EC50: assay number 32
T2 construct: purchased Cerep (LANCE kinase assay platform, contract assay)

[3] = tested on: endothelial tube formation in co-cultures of ECFCs and ADSCs treated with VEGF; experiment: cells; format: cell-based, human
[4] = tested on: ECFC/ADSC co-culture cell nuclei number
[5] = target: T3, hGSK3b (Homo sapiens, UniProt P49841); experiment: Cerep LANCE kinase assay hGSK3b (S1 assay 34); format: biochemical; details: for hGSK3b LANCE IC50/EC50: assay number 34
T3 construct: purchased Cerep (LANCE kinase assay platform, contract assay)

[6] = target: T4, hFLT3 (Homo sapiens, UniProt P36888); experiment: Cerep LANCE kinase assay hFLT3 (S1 assay 35); format: biochemical; details: for hFLT3 LANCE IC50/EC50: assay number 35
T4 construct: purchased Cerep (LANCE kinase assay platform, contract assay)

[7] = tested on: nuclear β-catenin in C2C12 cells; experiment: cells; format: cell-based; details: concentration response; for WntCondMedia_bCatenin C2C12 IC50/EC50: assay number 5
[8] = target: T5, hJAK2 (Homo sapiens, UniProt O60674); experiment: Cerep LANCE kinase assay hJAK2 (S1 assay 33); format: biochemical; details: for hJAK2 LANCE IC50/EC50: assay number 33
T5 construct: purchased Cerep (LANCE kinase assay platform, contract assay)

[9] = tested on: HeLa cells; experiment: cells; format: cell-based; details: for Hela CellCycMod PI 2N IC50/EC50: assay number 14; for Hela CellCycMod PI S Phase IC50/EC50: assay number 15; for Hela CellCycMod PI 4N IC50/EC50: assay number 16; for Hela CellCycMod PI MI IC50/EC50: assay number 17; for Hela CellCycMod PI Cell Number IC50/EC50: assay number 18
[10] = tested on: alkaline phosphatase (ALP) activity in C2C12 cells; format: cell-based; details: concentration response; for WntCondMedia_Alk Phos C2C12 IC50/EC50: assay number 6

T1 sequence (P23443 whole entry): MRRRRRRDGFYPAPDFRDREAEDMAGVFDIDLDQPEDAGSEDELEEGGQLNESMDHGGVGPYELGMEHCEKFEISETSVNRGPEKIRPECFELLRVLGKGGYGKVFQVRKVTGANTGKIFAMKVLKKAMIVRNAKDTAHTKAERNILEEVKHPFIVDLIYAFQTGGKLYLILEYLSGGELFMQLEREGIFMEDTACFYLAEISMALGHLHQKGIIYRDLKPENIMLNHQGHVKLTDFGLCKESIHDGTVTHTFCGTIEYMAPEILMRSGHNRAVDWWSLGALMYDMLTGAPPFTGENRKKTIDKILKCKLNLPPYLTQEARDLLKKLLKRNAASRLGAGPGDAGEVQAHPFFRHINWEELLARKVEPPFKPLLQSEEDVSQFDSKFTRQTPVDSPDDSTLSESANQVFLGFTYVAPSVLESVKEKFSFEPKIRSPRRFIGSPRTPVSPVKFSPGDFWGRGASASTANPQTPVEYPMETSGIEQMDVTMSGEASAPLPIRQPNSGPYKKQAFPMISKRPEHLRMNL
T5 sequence (O60674 whole entry): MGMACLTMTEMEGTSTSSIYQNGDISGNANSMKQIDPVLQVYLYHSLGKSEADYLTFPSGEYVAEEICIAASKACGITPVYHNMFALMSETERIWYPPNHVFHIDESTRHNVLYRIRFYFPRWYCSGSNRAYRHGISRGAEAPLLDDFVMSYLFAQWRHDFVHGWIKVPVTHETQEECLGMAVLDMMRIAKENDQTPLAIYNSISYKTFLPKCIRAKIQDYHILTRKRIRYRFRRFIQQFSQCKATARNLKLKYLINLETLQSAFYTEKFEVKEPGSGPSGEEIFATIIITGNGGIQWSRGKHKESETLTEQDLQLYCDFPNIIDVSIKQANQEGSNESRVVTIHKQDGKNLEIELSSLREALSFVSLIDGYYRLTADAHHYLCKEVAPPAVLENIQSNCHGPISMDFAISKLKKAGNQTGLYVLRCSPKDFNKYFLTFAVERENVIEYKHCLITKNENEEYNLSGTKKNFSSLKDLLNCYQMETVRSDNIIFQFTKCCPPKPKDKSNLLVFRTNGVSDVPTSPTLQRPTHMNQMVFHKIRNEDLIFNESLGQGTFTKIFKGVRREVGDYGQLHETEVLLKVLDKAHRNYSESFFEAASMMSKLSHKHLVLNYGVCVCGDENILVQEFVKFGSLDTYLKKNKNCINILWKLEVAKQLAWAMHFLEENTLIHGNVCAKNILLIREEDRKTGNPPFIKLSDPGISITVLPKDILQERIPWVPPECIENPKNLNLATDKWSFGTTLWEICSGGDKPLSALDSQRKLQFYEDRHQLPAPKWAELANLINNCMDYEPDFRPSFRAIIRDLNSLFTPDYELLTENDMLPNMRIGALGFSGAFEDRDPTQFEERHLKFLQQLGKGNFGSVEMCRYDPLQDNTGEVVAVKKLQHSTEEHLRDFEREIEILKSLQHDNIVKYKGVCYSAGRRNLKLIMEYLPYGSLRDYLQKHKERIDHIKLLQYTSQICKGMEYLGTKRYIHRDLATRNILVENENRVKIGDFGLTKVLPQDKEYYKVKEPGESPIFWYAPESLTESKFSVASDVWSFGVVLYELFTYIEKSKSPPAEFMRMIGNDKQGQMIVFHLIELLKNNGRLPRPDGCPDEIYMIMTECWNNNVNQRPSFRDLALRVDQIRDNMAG
T4 sequence (P36888 27-993): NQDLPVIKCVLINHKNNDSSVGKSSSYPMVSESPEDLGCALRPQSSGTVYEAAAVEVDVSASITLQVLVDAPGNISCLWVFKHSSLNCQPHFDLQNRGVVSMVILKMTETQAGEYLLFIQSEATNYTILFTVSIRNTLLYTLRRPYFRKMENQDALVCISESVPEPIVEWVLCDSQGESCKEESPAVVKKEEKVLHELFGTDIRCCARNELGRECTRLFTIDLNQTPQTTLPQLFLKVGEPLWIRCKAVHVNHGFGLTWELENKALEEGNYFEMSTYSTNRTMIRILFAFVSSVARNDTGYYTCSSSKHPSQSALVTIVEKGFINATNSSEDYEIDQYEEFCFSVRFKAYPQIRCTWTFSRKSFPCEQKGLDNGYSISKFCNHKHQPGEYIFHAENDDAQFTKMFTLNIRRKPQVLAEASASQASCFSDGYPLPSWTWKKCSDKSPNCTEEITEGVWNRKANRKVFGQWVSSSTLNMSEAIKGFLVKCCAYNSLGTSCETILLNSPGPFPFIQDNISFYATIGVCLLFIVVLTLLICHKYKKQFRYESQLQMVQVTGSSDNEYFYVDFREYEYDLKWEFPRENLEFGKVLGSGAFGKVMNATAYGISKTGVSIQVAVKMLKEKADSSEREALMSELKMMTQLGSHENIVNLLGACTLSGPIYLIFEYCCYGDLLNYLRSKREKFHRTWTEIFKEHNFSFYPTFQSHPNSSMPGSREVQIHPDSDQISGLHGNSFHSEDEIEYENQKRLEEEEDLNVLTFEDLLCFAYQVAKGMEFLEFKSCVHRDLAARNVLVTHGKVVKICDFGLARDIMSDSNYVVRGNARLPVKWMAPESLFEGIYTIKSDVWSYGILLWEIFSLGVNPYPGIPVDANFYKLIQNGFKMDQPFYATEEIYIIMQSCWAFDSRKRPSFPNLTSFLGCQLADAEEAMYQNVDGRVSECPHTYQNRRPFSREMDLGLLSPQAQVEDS
T2 sequence (P35968 20-1356): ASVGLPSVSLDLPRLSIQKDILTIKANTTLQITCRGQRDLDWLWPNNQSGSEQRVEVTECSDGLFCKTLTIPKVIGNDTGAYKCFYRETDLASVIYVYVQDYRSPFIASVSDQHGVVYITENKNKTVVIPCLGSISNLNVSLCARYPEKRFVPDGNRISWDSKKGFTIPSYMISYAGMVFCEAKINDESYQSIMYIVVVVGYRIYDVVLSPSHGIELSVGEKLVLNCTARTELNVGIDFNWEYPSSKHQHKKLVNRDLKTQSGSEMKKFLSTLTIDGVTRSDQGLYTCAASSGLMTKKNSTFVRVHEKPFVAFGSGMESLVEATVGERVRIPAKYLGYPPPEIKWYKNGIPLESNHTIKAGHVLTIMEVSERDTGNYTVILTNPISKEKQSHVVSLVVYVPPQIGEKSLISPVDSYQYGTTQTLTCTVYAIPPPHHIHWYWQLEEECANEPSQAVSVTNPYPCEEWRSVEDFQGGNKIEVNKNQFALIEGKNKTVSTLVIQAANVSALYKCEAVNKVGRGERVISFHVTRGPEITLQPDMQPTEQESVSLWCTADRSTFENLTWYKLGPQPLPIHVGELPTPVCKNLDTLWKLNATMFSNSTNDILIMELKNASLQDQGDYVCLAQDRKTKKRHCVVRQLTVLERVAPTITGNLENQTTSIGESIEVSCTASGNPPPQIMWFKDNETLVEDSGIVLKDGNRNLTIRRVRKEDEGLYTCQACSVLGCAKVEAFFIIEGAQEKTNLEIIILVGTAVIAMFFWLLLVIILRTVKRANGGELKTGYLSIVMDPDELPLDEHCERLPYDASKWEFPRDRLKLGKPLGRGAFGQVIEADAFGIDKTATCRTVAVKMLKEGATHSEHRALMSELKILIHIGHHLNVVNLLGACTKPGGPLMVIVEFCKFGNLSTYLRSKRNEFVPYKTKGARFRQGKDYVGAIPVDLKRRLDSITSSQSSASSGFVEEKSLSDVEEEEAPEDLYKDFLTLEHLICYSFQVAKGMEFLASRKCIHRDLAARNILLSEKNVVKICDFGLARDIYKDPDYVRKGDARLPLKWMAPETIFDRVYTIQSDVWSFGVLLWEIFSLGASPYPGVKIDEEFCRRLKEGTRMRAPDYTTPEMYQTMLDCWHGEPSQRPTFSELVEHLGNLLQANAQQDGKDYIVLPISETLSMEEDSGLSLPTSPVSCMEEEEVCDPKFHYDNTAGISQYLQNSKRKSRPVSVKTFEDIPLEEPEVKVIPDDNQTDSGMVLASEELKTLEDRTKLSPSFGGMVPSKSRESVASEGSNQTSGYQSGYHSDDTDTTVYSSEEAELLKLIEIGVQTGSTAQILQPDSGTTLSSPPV
T3 sequence (P49841 whole entry): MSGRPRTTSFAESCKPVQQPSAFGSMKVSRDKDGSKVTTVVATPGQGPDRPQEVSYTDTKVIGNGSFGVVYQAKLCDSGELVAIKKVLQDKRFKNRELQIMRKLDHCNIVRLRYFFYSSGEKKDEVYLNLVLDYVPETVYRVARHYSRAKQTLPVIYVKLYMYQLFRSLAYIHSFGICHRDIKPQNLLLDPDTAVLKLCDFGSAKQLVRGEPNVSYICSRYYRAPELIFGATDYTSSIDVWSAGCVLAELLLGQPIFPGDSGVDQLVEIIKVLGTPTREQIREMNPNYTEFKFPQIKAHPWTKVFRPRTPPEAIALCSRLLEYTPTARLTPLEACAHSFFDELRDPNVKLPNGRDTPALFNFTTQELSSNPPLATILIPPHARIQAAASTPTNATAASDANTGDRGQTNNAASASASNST

Row | Structure (SMILES) | hp70S6K1 LANCE IC50/EC50 [1] | hKDR LANCE IC50/EC50 [2] | VEGF_ADSC\ECFC Angio CD31 TubeArea IC50/EC50 [3] | VEGF_ADSC\ECFC Angio Hoechst NucArea IC50/EC50 [4] | hGSK3b LANCE IC50/EC50 [5] | hFLT3 LANCE IC50/EC50 [6] | WntCondMedia_bCatenin C2C12 IC50/EC50 [7] | hJAK2 LANCE IC50/EC50 [8] | Hela CellCycMod PI 2N IC50/EC50 [9] | Hela CellCycMod PI S Phase IC50/EC50 [9] | Hela CellCycMod PI 4N IC50/EC50 [9] | Hela CellCycMod PI MI IC50/EC50 [9] | Hela CellCycMod PI Cell Number IC50/EC50 [9] | WntCondMedia_Alk Phos C2C12 IC50/EC50 [10] | also measured
1 | COC(=O)Nc1nc2ccc(C(=O)c3ccccc3)cc2[nH]1 [NCGC00016806-13] |  |  |  |  |  |  |  |  |  |  |  |  |  |  | IC50/EC50, hp70S6K1 LANCE (assay number 31) [1]: > 20 µM; IC50/EC50, hKDR LANCE (assay number 32) [2]: 1.43 µM; IC50/EC50, VEGF_ADSC\ECFC Angio CD31 TubeArea (assay number 2) [3]: 0.3699 µM; IC50/EC50, VEGF_ADSC\ECFC Angio Hoechst NucArea (assay number 3) [4]: > 10 µM; IC50/EC50, hGSK3b LANCE (assay number 34) [5]: > 20 µM; IC50/EC50, hFLT3 LANCE (assay number 35) [6]: > 20 µM; IC50/EC50, WntCondMedia_bCatenin C2C12 (assay number 5) [7]: 1.7387 µM; IC50/EC50, hJAK2 LANCE (assay number 33) [8]: > 20 µM; IC50/EC50, Hela CellCycMod PI 2N (assay number 14) [9]: 0.0761 µM; IC50/EC50, Hela CellCycMod PI 4N (assay number 16) [9]: 0.08 µM; IC50/EC50, Hela CellCycMod PI Cell Number (assay number 18) [9]: 0.0542 µM; IC50/EC50, Hela CellCycMod PI MI (assay number 17) [9]: 0.0648 µM; IC50/EC50, WntCondMedia_Alk Phos C2C12 (assay number 6) [10]: 0.2454 µM
2 | CC(C)(C)C(=O)OCOP(=O)(COCCn1cnc2c(N)ncnc21)OCOC(=O)C(C)(C)C [NCGC00164624-02] | > 20 µM | > 20 µM | 0.3913 µM | > 10 µM | > 20 µM | > 20 µM | 0.7043 µM | > 20 µM | > 10 µM | 0.0608 µM | > 10 µM | > 10 µM | 0.134 µM | 0.3874 µM | 
3 | COC(=O)Nc1nc2ccc(C(=O)c3cccs3)cc2[nH]1 [NCGC00015647-18] |  |  |  |  |  |  |  |  |  |  |  |  |  |  | IC50/EC50, hp70S6K1 LANCE (assay number 31) [1]: > 20 µM; IC50/EC50, hKDR LANCE (assay number 32) [2]: 6.61 µM; IC50/EC50, VEGF_ADSC\ECFC Angio CD31 TubeArea (assay number 2) [3]: 0.1018 µM; IC50/EC50, VEGF_ADSC\ECFC Angio Hoechst NucArea (assay number 3) [4]: > 10 µM; IC50/EC50, hGSK3b LANCE (assay number 34) [5]: 19.89 µM; IC50/EC50, hFLT3 LANCE (assay number 35) [6]: > 20 µM; IC50/EC50, WntCondMedia_bCatenin C2C12 (assay number 5) [7]: 0.2351 µM; IC50/EC50, hJAK2 LANCE (assay number 33) [8]: > 20 µM; IC50/EC50, Hela CellCycMod PI 2N (assay number 14) [9]: 0.0174 µM; IC50/EC50, Hela CellCycMod PI 4N (assay number 16) [9]: 0.01755 µM; IC50/EC50, Hela CellCycMod PI MI (assay number 17) [9]: 0.01339 µM; IC50/EC50, Hela CellCycMod PI S Phase (assay number 15) [9]: > 10 µM; IC50/EC50, WntCondMedia_Alk Phos C2C12 (assay number 6) [10]: 0.0434 µM
4 | [O-][n+]1ccccc1SSc1cccc[n+]1[O-] [NCGC00164493-02] | > 20 µM | > 20 µM | 0.719 µM | 1.7865 µM | > 20 µM | > 20 µM | 0.9914 µM | > 20 µM | > 10 µM | > 10 µM | > 10 µM | 2.2317 µM | 0.8425 µM | 0.1306 µM | 
5 | CCN(CC)CCNc1ccc(CO)c2sc3ccccc3c(=O)c12 [NCGC00016622-08] |  |  |  |  |  |  |  |  |  |  |  |  |  |  | IC50/EC50, hp70S6K1 LANCE (assay number 31) [1]: 17.07 µM; IC50/EC50, hKDR LANCE (assay number 32) [2]: > 20 µM; IC50/EC50, VEGF_ADSC\ECFC Angio CD31 TubeArea (assay number 2) [3]: 8.3546 µM; IC50/EC50, VEGF_ADSC\ECFC Angio Hoechst NucArea (assay number 3) [4]: > 10 µM; IC50/EC50, hGSK3b LANCE (assay number 34) [5]: > 20 µM; IC50/EC50, hFLT3 LANCE (assay number 35) [6]: > 20 µM; IC50/EC50, WntCondMedia_bCatenin C2C12 (assay number 5) [7]: > 20 µM; IC50/EC50, hJAK2 LANCE (assay number 33) [8]: > 20 µM; IC50/EC50, Hela CellCycMod PI 2N (assay number 14) [9]: 5.6786 µM; IC50/EC50, Hela CellCycMod PI 4N (assay number 16) [9]: > 10 µM; IC50/EC50, Hela CellCycMod PI Cell Number (assay number 18) [9]: 5.9199 µM; IC50/EC50, Hela CellCycMod PI MI (assay number 17) [9]: > 10 µM; IC50/EC50, Hela CellCycMod PI S Phase (assay number 15) [9]: > 10 µM; IC50/EC50, WntCondMedia_Alk Phos C2C12 (assay number 6) [10]: 2.6738 µM
6 | CCCCC1C(=O)N(c2ccccc2)N(c2ccc(O)cc2)C1=O (centres unmarked) [NCGC00094748-07] | > 20 µM | > 20 µM | 3.2937 µM | 8.826 µM | > 20 µM | > 20 µM | > 20 µM | > 20 µM | > 10 µM | > 10 µM | > 10 µM | > 10 µM | 1.6628 µM | 4.9189 µM | 
7 | CC(=O)[C@]1(O)Cc2c(O)c3c(c(O)c2[C@@H](O[C@H]2C[C@H](N)[C@H](O)[C@H](C)O2)C1)C(=O)c1ccccc1C3=O [NCGC00093976-08] | > 20 µM | > 20 µM | 0.0208 µM | 0.5381 µM | > 20 µM | > 20 µM | 0.1001 µM | > 20 µM | 0.0111 µM | > 10 µM | > 10 µM | 0.6593 µM | 0.0142 µM | 0.5039 µM | 
8 | CC[C@@]1(O)C(=O)OCc2c1cc1n(c2=O)Cc2c-1nc1ccccc1c2/C=N/OC(C)(C)C [NCGC00253588-01] | > 20 µM | > 20 µM | 0.002 µM | 0.7994 µM | > 20 µM | > 20 µM | 1.1571 µM | > 20 µM |  |  | > 10 µM | > 10 µM | 0.0022 µM | 0.0032 µM | 
9 | C=C(C)[C@H]1Cc2c(ccc3c2O[C@@H]2COc4cc(OC)c(OC)cc4[C@@H]2C3=O)O1 [NCGC00017358-15] | > 20 µM | > 20 µM | 0.0257 µM | > 10 µM | > 20 µM | > 20 µM | 2.9875 µM | > 20 µM | 0.3111 µM | > 10 µM | 0.3108 µM | 0.2229 µM | 0.1532 µM | 0.2539 µM | 
10 | CCCOc1ccc2nc(NC(=O)OC)[nH]c2c1 [NCGC00018238-09] | > 20 µM | > 20 µM | 0.3276 µM | > 10 µM | > 20 µM | > 20 µM | 0.3653 µM | > 20 µM | 0.0622 µM |  | 0.0567 µM | 0.0775 µM | 0.0467 µM | 0.0881 µM | 
11 | CC[C@]1(O)C[C@H]2CN(CCc3c([nH]c4ccccc34)[C@@](C(=O)OC)(c3cc4c(cc3OC)N(C=O)[C@H]3[C@@](O)(C(=O)OC)[C@H](OC(C)=O)[C@]5(CC)C=CCN6CC[C@]43[C@@H]65)C2)C1 [NCGC00263543-01] | > 20 µM | > 20 µM | 0.0065 µM | > 10 µM | > 20 µM | > 20 µM | 0.004 µM | > 20 µM | 0.0062 µM |  | 0.0059 µM | 0.0061 µM | 0.0065 µM | 0.0051 µM | 
12 | CCCCCCNC(=O)n1cc(F)c(=O)[nH]c1=O [NCGC00095165-07] | > 20 µM | > 20 µM | 4.486 µM | > 10 µM | > 20 µM | > 20 µM | 4.9829 µM | > 20 µM | > 10 µM |  | > 10 µM | > 10 µM | > 10 µM | 5.5533 µM | 
